“Also recorded” adds a separate entry of the source. No end group written: not given here. Cy5Q = quencher

The subject of one data set is parental SK-OV cells. Nature of the data set: Nitroreductase assay, delivery of nitroreductase reporter, non-transfected cells. The format is cell-based, Human. The conditions noted are these: 10 μM, parental cell lines, FIG. 9. The source says: (§1) As disclosed in PCT/GB99/01746, the fluorescence properties of cyanine dyes may be modified by substitution of the dye with nitro, and/or dinitrobenzyl groups, which have the effect of reducing or abolishing the fluorescence from the molecule. An example of such a quenching or “dark” dye is Cy5Q (Amersham Pharmacia Biotech). In the presence of the enzyme, nitroreductase (NTR), a nitro-group substituent of Cy5Q may be converted to an amino-group, with the result that there is an increase in the fluorescence intensity of the dye. This may be used as the basis for an assay for the measurement of intracellular nitroreductase. In this example, Cy5Q is conjugated to a carrier peptide and is used as an indicator of nitroreductase (NTR) in whole, living cells.
(§2) The assay may be carried out using cells transfected with DNA encoding the gene for bacterial NTR, such that when the Cy5Q conjugate is introduced into such a transfected cell line, an increase in fluorescence is measured. […]
(§3) Cy5Q chemically linked to the carrier peptide Ac-Ala-Pro-Thr-Arg-Val-Leu-Pro-Pro-Leu-Val-Ala-Gly-Gly-Lys-amide was incubated with cells (30,000 cells/well) (1-5 hours, 5% CO2, 37° C., 95% humidity), cells washed (×3) with PBS and fluorescence measured from below, using a CytoFluor multi-well plate reader (Applied Biosystems), (activating at 610 nm, emission 670 nm). […]

In data set [1] the test system is SK-OV-NTR cells (SK-OV-3 stably transfected with bacterial NTR genes). Put plainly: Nitroreductase assay, delivery of nitroreductase reporter, transfected cells. Format: cell-based, Human. The conditions noted are these: 10 μM, 5 hour incubation.
From the text: as §1, §2, §3

For the next data set, the system named is NIH 3T3. Nature of the data set: Selective permeabilisation with digitonin (cytosolic vs organelle fraction fluorescence). Format: cell-based, Mouse. The conditions noted are these: 60 min incubation, 20 μM digitonin 3 min, FIG. 8. The protocol:
Mouse fibroblasts (NIH 3T3) were cultured at 1×10^6 cells/ml in DMEM (see above) on 24-well tissue culture plates (Costar Inc.). Cells were incubated with Cy3- labelled carrier peptides (H2N-Ala-Pro-Thr-Arg-Val-Pro-Leu-Pro-Leu-Pro-Val-Gly-Gly-Lys-OH (SEQ ID No.4); H2N-Ala-Pro-Thr-Arg-Ala-Val-Leu-Pro-Leu-Ala-Val-Gly-Gly-Lys-OH (SEQ ID No.5); H2N-Ala-Pro-Thr-Arg-Val-Leu-Pro-Pro-Leu-Val-Ala-Gly-Gly-Lys-OH (SEQ ID No.6); H2N-Ala-Pro-Thr-Arg-Val-Leu-Leu-Pro-Leu-Leu-Val-Gly-Gly-Lys-OH (SEQ ID No.7) for 60 minutes (5% CO2, 37° C., 95% humidity). Cells were washed (×4) with PBS, before addition of 20 μM digitonin for 3 minutes. Cells were rapidly centrifuged (10,000×g, for 5 minutes) to separate into supernatant (cytosolic) and pellet (organelle) fractions. The fluorescence activity was then measured using a CytoFluor multi-well plate reader (activating at 530 nm, emission 590 nm). Unlabelled cells (cells without dye), unlabelled Cy3 (unlinked dye) (Amersham Pharmacia Biotech), and, untreated cells (unpermeabilised cells without digitonin), were used as controls. […] Cytosolic preparations were confirmed using an assay for cytoplasmic lactic dehydrogenase (LDH) in the presence of PNADH (Wroblewski & LaDue, Proc. Soc. Exp. Biol. Med. 1955, (90), 210-213.

The subject of data set [2] is NIH 3T3 cells. Put plainly: Cellular uptake of Cy3 linked to carrier peptide (plate reader, fluorescence and confocal microscopy). The format is cell-based, Mouse. The protocol: Mouse fibroblasts (NIH 3T3) or human ovary adenocarcinoma (SK-OV) cells were cultured in Dulbecco's modified Eagle's medium (DMEM) supplemented with 10% (v/v) foetal calf serum (FCS), 4 mM L-glutamine, 100 U/ml penicillin and 100 μg/ml streptomycin. NIH 3T3 cells were grown on 96-well tissue culture plates (Costar Inc.) or WillCo-dishes (glass-bottomed dishes, with 0.17 mm cover glass for inverted microscopes) (WillCo), before treatment with carrier peptide. Cells were incubated (60 min, 5% CO2, 37° C., 95% humidity) with Cy3 linked to carrier peptide (H2N-Ala-Pro-Thr-Arg-Val-Leu-Pro-Pro-Leu-Val-Ala-Gly-Gly-Lys-OH) (SEQ ID No.6)) (range 1-100 μM). After incubation, the culture supernatant was decanted and the cells were washed. Cy3 (unlinked dye) (Amersham Pharmacia Biotech) was used as a control. Cellular fluorescence was detected using a CytoFluor multi-well plate reader (Applied Biosystems, Foster City, Calif., USA), (activating at 530 nm, emission 590 nm) (FIG. 1); a Nikon-Diaphot 300 fluorescence microscope, (activating at 490 nm, emission at 520 nm); and a Zeiss Microsystems confocal laser scanning microscope (LSM4) (activating at 515 nm, emission at 565 nm) (FIGS. 2 (a) and (b)). Cells were further studied for intracellular dye localization by a twenty-step Z-position sectional scanning of the cell (0.5 μm/section) using a 40× oil immersion lens (FIG. 3). […]

Data set [3] has as its system NIH 3T3 cells. Nature of the data set: Flow cytometry of cells incubated with Cy3 linked to carrier peptide. Format: cell-based, Mouse. As to conditions: 1 μM, 60 min. The protocol:
Mouse fibroblasts (NIH 3T3 cells) were cultured in DMEM (see above) on 24-well tissue culture plates (Costar Inc.). Cells were incubated (60 min, 5% CO2, 37° C., 95% humidity) with Cy3 (1 μM) linked to carrier peptide (H2N-Ala-Pro-Thr-Arg-Val-Leu-Pro-Pro-Leu-Val-Ala-Gly-Gly-Lys-OH (SEQ ID No.6)). After incubation, the culture supernatant was decanted and the cells washed. Cells were trypsinised (0.25% w/v, 5 min) and re-suspended in PBS, before analysis by flow cytometry (see below). Untreated cells and Cy3 only (unlinked dye) (Amersham Pharmacia Biotech) were used as controls.
All samples were analyzed on a FACSCalibur Flow Cytometry System (Becton Dickinson, San Jose, Calif., USA) with CellQuest software. The instrument is equipped with a 488 nm argon-ion laser and 5 detection parameters. There are 2 scatter detectors, known as forward scatter (FSC) and side scatter (SSC) which provide information about cellular size and internal complexity, respectively. In addition, there are three relative fluorescence intensity detectors. Cy3 labelling was monitored with the second fluorescence detector (FL2) fitted with a 585/42 nm filter. […]
Histogram markers were set so that only 2-3% of the recorded events were past the FL2 channel marker 30 for the dye only control.
(In general: Flow cytometry measures light scatter and fluorescence of single cells or particles in a stream.)

The test system of data set [4] is NIH 3T3 cells. Put plainly: Cellular delivery of nuclear localization sequence (confocal microscopy). The format is cell-based, Mouse. As to conditions: overnight incubation, FIG. 10. The protocol: NIH 3T3 cells were cultured (see above) on WillCo-dishes (glass-bottomed dishes, with 0.17 mm cover glass for inverted microscopes) (WillCo), before treatment with carrier peptide linked to the nuclear localization sequence. Confluent NIH 3T3 cells were incubated (overnight, 5% CO2, 37° C., 95% humidity) in the presence of Cy3-[…]amide, before washing (×3) with PBS, and visualization using a Zeiss Microsystems confocal laser scanning microscope (LSM4) (activating at 515 nm, emission at 565 nm). Controls included Cy3 linked to carrier peptide (Cy3-Ala-Pro-Thr-Arg-Val-Leu-Pro-Pro-Leu-Val-Ala-Gly-Gly-Lys-OH), and unlabelled Cy3 (unlinked dye) (Amersham Pharmacia Biotech).

“Ac-Ala-Pro-Thr-Arg-Val-Leu-Pro-Pro-Leu-Val-Ala-Gly-Gly-Lys(Cy5Q)-amide (Ac-APTRVLPPLVAGGK(Cy5Q)-NH2) [carrier peptide linked to Cy5Q]”: the “substrate conversion (Cy5Q fluorescence)” value in the data set with parental SK-OV cells is listed as “Little conversion”. In addition, the “cellular uptake and substrate conversion (Cy5Q fluorescence)” value is “significant cellular internalization and substrate conversion” in data set [1] (FIG. 9); “significant cellular uptake and substrate conversion” in data set [1] (FIG. 9, listed as delivery peptide linked to Cy5Q).
Turning to “Cy3 linked to carrier peptide (SEQ ID No.4): Cy3 dye linked through NHS ester to carrier peptide H2N-Ala-Pro-Thr-Arg-Val-Pro-Leu-Pro-Leu-Pro-Val-Gly-Gly-Lys-OH (APTRVPLPLPVGGK-OH; also: Cy3 dye linked through NHS ester, site not given here)”, the “delivered dye in the cytosol (supernatant fraction after digitonin)” value in the data set with NIH 3T3 is reported as “significant amount of delivered agent in the cytosol; also recorded: significant amount of delivered dye into the cytosol”.
On the same count and under the same terms, as for “Cy3 linked to carrier peptide (SEQ ID No.5): Cy3 dye linked through NHS ester to carrier peptide H2N-Ala-Pro-Thr-Arg-Ala-Val-Leu-Pro-Leu-Ala-Val-Gly-Gly-Lys-OH (APTRAVLPLAVGGK-OH; also: Cy3 dye linked through NHS ester, site not given here)”, the entry is “significant amount of delivered agent in the cytosol; also recorded: significant amount of delivered dye into the cytosol”; as for “Cy3 linked to carrier peptide (SEQ ID No.7): Cy3 dye linked through NHS ester to carrier peptide H2N-Ala-Pro-Thr-Arg-Val-Leu-Leu-Pro-Leu-Leu-Val-Gly-Gly-Lys-OH (APTRVLLPLLVGGK-OH; also: Cy3 dye linked through NHS ester, site not given here)”, “significant amount of delivered agent in the cytosol; also recorded: significant amount of delivered dye into the cytosol”.
Take “Cy3-Ala-Pro-Thr-Arg-Val-Leu-Pro-Pro-Leu-Val-Ala-Gly-Gly-Lys-OH (Cy3-APTRVLPPLVAGGK-OH)”: the “delivered dye in the cytosol (supernatant fraction after digitonin)” value with NIH 3T3 is reported as “significant amount of delivered agent in the cytosol; also recorded: significant amount of delivered dye into the cytosol”. Moreover, the “intracellular dye localization by twenty-step Z-position sectional scanning” value in the data set on NIH 3T3 cells [2] (confocal, 0.5 μm/section, FIG. 3) was “dye staining in the central portion of the cell, and little staining on the periphery or cell membrane”. The “uptake of Cy3 into NIH 3T3 cells (cellular fluorescence)” value with NIH 3T3 cells [2] (range 1-100 μM, 60 min, CytoFluor plate reader, FIG. 1) is given as “dose-dependent uptake”. For the same substance, the “uptake of Cy3 across the cell population (dot plots)” value in the data set on NIH 3T3 cells [3] (FIG. 5) was “homogeneous uptake”. Besides, in the data set with NIH 3T3 cells [3] (FL2 histogram, FIG. 6), the “increase in fluorescence geometric mean between dye control and test cells” value was “approximately 5 fold”.
Take “Cy3-Ser-Ser-Asp-Asp-Glu-Ala-Thr-Ala-Ser-Asp-Gln-His-Ser-Thr-Pro-Pro-Lys-Lys-Lys-Arg-Lys-Val-Glu-Asp-Pro-Lys-Ala-Pro-Thr-Arg-Val-Leu-Pro-Pro-Leu-Val-Ala-Gly-Gly-Lys-amide”: the “nuclear staining compared with the controls” value in the data set on NIH 3T3 cells [4] is “more pronounced nuclear staining”.

These data come from patent US20030113819A1, “Carrier peptide and method for delivery of molecules into cells” (priority 2002, published 2003).
